# Measured values: the supplement of paper PMC9780213
# Assays:
# Conditions in all cases: treatment time: 24 h
# U2OS-LMNB1-TUBA1B-ACTB = assay: cell count relative to DMSO control (panel C1, DRAQ5/ER stain) (fraction of control); higher = more cells (less toxicity)
# Procedure: (§1)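 U2OS-derived cells in 384-well plates were treated for 24 h with a 7-point 2-fold dilution series (top dose 20 µM for most compounds; final max DMSO 1%), then fixed, stained in four marker panels and imaged on a Cellomics ArrayScan. Cell count per treatment (three replicate plates merged) is given as a fraction of DMSO control. Panel A used parental U2OS, panel B U2OS-mOrange2-Peroxisome, panel C1 U2OS-LMNB1-TUBA1B-ACTB (DRAQ5 nuclei).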
# U2OS-mOrange2-Peroxisome = assay: cell count relative to DMSO control (panel B, lysosome/peroxisome/lipid stain) (fraction of control); higher = more cells (less toxicity)
# Procedure: as §1
# U2OS = assay: cell count relative to DMSO control (panel A, nuclei/RNA/PMG/mitochondria stain) (fraction of control); higher = more cells (less toxicity)
# Procedure: as §1
SMILES,cell count (U2OS-LMNB1-TUBA1B-ACTB; 0.3125 µM),cell count (U2OS-LMNB1-TUBA1B-ACTB; 0.625 µM),cell count (U2OS-LMNB1-TUBA1B-ACTB; 1.25 µM),cell count (U2OS-LMNB1-TUBA1B-ACTB; 2.5 µM),cell count (U2OS-LMNB1-TUBA1B-ACTB; 5 µM),cell count (U2OS-LMNB1-TUBA1B-ACTB; 10 µM),cell count (U2OS-LMNB1-TUBA1B-ACTB; 20 µM),cell count (U2OS-mOrange2-Peroxisome; 0.3125 µM),cell count (U2OS-mOrange2-Peroxisome; 0.625 µM),cell count (U2OS-mOrange2-Peroxisome; 1.25 µM),cell count (U2OS-mOrange2-Peroxisome; 2.5 µM),cell count (U2OS-mOrange2-Peroxisome; 5 µM),cell count (U2OS-mOrange2-Peroxisome; 10 µM),cell count (U2OS-mOrange2-Peroxisome; 20 µM),cell count (U2OS; 0.3125 µM),cell count (U2OS; 0.625 µM),cell count (U2OS; 1.25 µM),cell count (U2OS; 2.5 µM),cell count (U2OS; 5 µM),cell count (U2OS; 10 µM),cell count (U2OS; 20 µM),cell count (U2OS-LMNB1-TUBA1B-ACTB; 0.07812 µM),cell count (U2OS-LMNB1-TUBA1B-ACTB; 0.15625 µM),cell count (U2OS-mOrange2-Peroxisome; 0.07812 µM),cell count (U2OS-mOrange2-Peroxisome; 0.15625 µM),cell count (U2OS; 0.07812 µM),cell count (U2OS; 0.15625 µM)
NCCCCC(N)C(=O)NC(CCCCN)C(=O)NC(Cc1c[nH]c2ccccc12)C(=O)NC(Cc1c[nH]c2ccccc12)C(=O)NC(CCCCN)C(=O)NC(CCCCN)C(=O)NC(Cc1c[nH]c2ccccc12)C(=O)NC(C(=O)NC(CCCCN)C(N)=O)C(c1ccccc1)c1ccccc1 (stereo not drawn) [LTX-315],1.13,1.1,1.08,1.05,0.842,0.47,0.0329,0.785,0.756,0.817,0.766,0.885,0.508,0.0593,1.04,0.967,1.09,0.948,0.657,0.15,0.0373,,,,,,
CCCC[C@@H](C=O)NC(=O)[C@H](CC(C)C)NC(=O)[C@H](CC(C)C)NC(C)=O [MG-101],1.15,1.07,1.08,0.727,0.443,0.173,0.0712,0.692,0.642,0.697,0.608,0.346,0.242,0.16,0.986,0.975,0.773,0.429,0.198,0.14,0.0899,,,,,,
CC(C)n1nc(-c2ccc3oc(N)nc3c2)c2c(N)ncnc21 [MLN0128],0.7,0.698,0.614,0.557,0.271,,,0.42,0.439,0.393,0.301,0.0428,,,0.521,0.481,0.454,0.408,0.204,,,0.774,0.748,0.578,0.426,0.646,0.584
CN1CCC(c2c(O)cc(O)c3c(=O)cc(-c4ccccc4Cl)oc23)[C@@H](O)C1 (stereo partly drawn) [alvocidib],0.864,0.789,0.569,0.314,0.253,0.239,0.257,1.61,1.52,1.18,1.24,1.29,0.687,0.372,0.804,0.575,0.44,0.221,0.142,0.14,0.153,,,,,,
COc1cc(NS(C)(=O)=O)ccc1Nc1c2ccccc2nc2ccccc12 [amsacrine],0.954,0.858,0.513,0.448,0.441,0.402,0.373,0.619,0.639,0.486,0.428,0.312,0.203,0.142,1.04,0.838,0.405,0.402,0.322,0.359,0.329,,,,,,
N#C[C@H](O[C@@H]1O[C@H](CO[C@@H]2O[C@H](CO)[C@@H](O)[C@H](O)[C@H]2O)[C@@H](O)[C@H](O)[C@H]1O)c1ccccc1 [amygdalin],1.05,1.15,0.992,1.01,0.959,1.1,0.956,0.877,0.848,0.731,0.983,0.805,0.948,0.953,1.09,1.06,1.07,1.02,0.921,1.05,0.974,,,,,,
COc1ccc(C[C@H]2NC[C@H](O)[C@H]2OC(C)=O)cc1 [anisomycin],0.84,0.602,0.226,0.0722,0.0685,0.0611,0.166,0.678,0.277,0.0792,0.0323,0.133,0.195,0.1,0.794,0.502,0.186,0.0402,0.0213,0.0357,0.053,,,,,,
CCCC[C@H]1C(=O)O[C@H](C)[C@H](NC(=O)c2cccc(NC=O)c2O)C(=O)O[C@@H](C)[C@@H]1OC(=O)CC(C)C [antimycin-a],1.05,0.943,0.716,0.66,0.626,0.54,,0.945,0.858,0.811,0.724,0.66,0.739,,1.02,0.799,0.644,0.587,0.497,0.507,,,1.01,,1.04,,1.04
